Data taken from patent US20210392895A1, “NOVEL OXADIAZOLES” (PI INDUSTRIES LIMITED, priority 2018, published 2021).
Structures can show the parent of a compound that is named as a salt.

These compounds were tested on Phakopsora pachyrhizi (assay: Phakopsora pachyrhizi test in soybean (greenhouse, preventive activity, disease severity rating)). Settings: preventive spray on soybean, compared to the untreated check.
Assay type: in vivo
Protocol: To test the preventive activity of compounds, healthy young soybean plants, raised in the greenhouse, were sprayed with the active compound solution at the stated application rates inside spray cabinets using hallowcone nozzles. One day after treatment, the plants were inoculated with a suspension containing 2.1×10^6 Phakopsora pachyrhizi spores. The inoculated plants were then kept in the greenhouse chamber at 25° C. temperature and 90% relative humidity for disease expression. A visual assessment of the compound's performance was carried out by rating the disease severity (0-100% scale) on treated plants on 3, 7, 10 and 15 days after application. Efficacy (% control) of the compounds was calculated by comparing the disease rating in the treatment with the one of the untreated control. The treated plants were also assessed for plant compatibility by recording symptoms like necrosis, chlorosis and stunting.
In the case of `CN(C)c1ccc(C(=O)N2CC[C@H](Oc3ccc(-c4noc(C(F)(F)F)n4)cc3)C2)cc1` [Compound 8, (S)-(4-(dimethylamino)phenyl)(3-(4-(5-(trifluoromethyl)-1,2,4-oxadiazol-3-yl)phenoxy)pyrrolidin-1-yl)methanone], the pest or weed control at 500 ppm is reported as greater than 70%.
`COc1ccc(C(=O)N2CC[C@H](Oc3ccc(-c4noc(C(F)(F)F)n4)nc3)C2)cc1` [Compound 29, (S)-(4-methoxyphenyl)(3-((6-(5-(trifluoromethyl)-1,2,4-oxadiazol-3-yl)pyridin-3-yl)oxy)pyrrolidin-1-yl)methanone] showed a pest or weed control at 500 ppm greater than 70%.
With `C[N+]1(C)CC[C@H](Oc2ccc(-c3noc(C(F)(F)F)n3)cn2)C1` [Compound 51, (S)-1,1-dimethyl-3-((5-(5-(trifluoromethyl)-1,2,4-oxadiazol-3-yl)pyridin-2-yl)oxy)pyrrolidin-1-ium 2,2,2-trifluoroacetate] the pest or weed control at 500 ppm was greater than 70%.
With `O=C(c1cccnc1)N1CC[C@@H](Oc2ccc(-c3noc(C(F)(F)F)n3)cn2)C1` [Compound 79, (R)-pyridin-3-yl(3-((5-(5-(trifluoromethyl)-1,2,4-oxadiazol-3-yl)pyridin-2-yl)oxy)pyrrolidin-1-yl)methanone] the pest or weed control at 500 ppm was greater than 70%.
Compound `O=C(c1cccc(Cl)c1)N1CCC(Oc2cccc(-c3noc(C(F)(F)F)n3)c2)C1` (centres unmarked) [Compound 144, (3-chlorophenyl)(3-(3-(5-(trifluoromethyl)-1,2,4-oxadiazol-3-yl)phenoxy)pyrrolidin-1-yl)methanone] has a pest or weed control at 500 ppm greater than 70%.
With `CC(C)S(=O)(=O)N1CC[C@H](Oc2ccc(-c3noc(C(F)(F)F)n3)cn2)C1` [Compound 155, (S)-3-(6-((1-(isopropylsulfonyl)pyrrolidin-3-yl)oxy)pyridin-3-yl)-5-(trifluoromethyl)-1,2,4-oxadiazole] the pest or weed control at 500 ppm was greater than 70%.
Compound `O=S(=O)(c1cccnc1)N1CC[C@H](Oc2ccc(-c3noc(C(F)(F)F)n3)cn2)C1` [Compound 153, (S)-3-(6-((1-(pyridin-3-ylsulfonyl)pyrrolidin-3-yl)oxy)pyridin-3-yl)-5-(trifluoromethyl)-1,2,4-oxadiazole] has a pest or weed control at 500 ppm greater than 70%.
Compound `O=C(c1ccccc1F)N1CC[C@H](Oc2ccc(-c3noc(C(F)(F)F)n3)nc2)C1` [Compound 28, (S)-(2-fluorophenyl)(3-((6-(5-(trifluoromethyl)-1,2,4-oxadiazol-3-yl)pyridin-3-yl)oxy)pyrrolidin-1-yl)methanone] has a pest or weed control at 500 ppm greater than 70%.
`O=C(c1ccccc1F)N1CC[C@H](Oc2ccc(-c3noc(C(F)(F)F)n3)c(F)c2)C1` [Compound 63, (S)-(3-(3-fluoro-4-(5-(trifluoromethyl)-1,2,4-oxadiazol-3-yl)phenoxy)pyrrolidin-1-yl)(2-fluorophenyl)methanone] gave a pest or weed control at 500 ppm greater than 70%.
`O=C(c1cccc(F)c1)N1CC[C@H](Oc2ccc(-c3noc(C(F)(F)F)n3)c(F)c2)C1` [Compound 64, (S)-(3-(3-fluoro-4-(5-(trifluoromethyl)-1,2,4-oxadiazol-3-yl)phenoxy)pyrrolidin-1-yl)(3-fluorophenyl)methanone] showed a pest or weed control at 500 ppm greater than 70%.
For `O=C(c1cccnc1)N1CC[C@H](Oc2ccc(-c3noc(C(F)(F)F)n3)nc2)C1` [Compound 31, (S)-pyridin-3-yl(3-((6-(5-(trifluoromethyl)-1,2,4-oxadiazol-3-yl)pyridin-3-yl)oxy)pyrrolidin-1-yl)methanone], the pest or weed control at 500 ppm was greater than 70%.
`O=C(c1cccc(Br)c1)N1CC[C@H](Oc2ccc(-c3noc(C(F)(F)F)n3)cc2)C1` [Compound 3, (S)-(3-bromophenyl)(3-(4-(5-(trifluoromethyl)-1,2,4-oxadiazol-3-yl)phenoxy)pyrrolidin-1-yl)methanone] gave a pest or weed control at 500 ppm greater than 70%.
`Cc1cccc(S(=O)(=O)N2CC[C@H](Oc3ccc(-c4noc(C(F)(F)F)n4)cn3)C2)c1` [Compound 112, (S)-3-(6-((1-(m-tolylsulfonyl)pyrrolidin-3-yl)oxy)pyridin-3-yl)-5-(trifluoromethyl)-1,2,4-oxadiazole] showed a pest or weed control at 500 ppm greater than 70%.
`O=C(C1CC1)N1CC[C@H](Oc2ccc(-c3noc(C(F)(F)F)n3)cc2)C1` [Compound 43, (S)-cyclopropyl(3-(4-(5-(trifluoromethyl)-1,2,4-oxadiazol-3-yl)phenoxy)pyrrolidin-1-yl)methanone] was tested, and the pest or weed control at 500 ppm was greater than 70%.
Compound `CC(C)(C)OC(=O)N1CCC(Oc2cccc(-c3noc(C(F)(F)F)n3)c2)C1` (centres unmarked) [Compound 127, tert-butyl 3-(3-(5-(trifluoromethyl)-1,2,4-oxadiazol-3-yl)phenoxy)pyrrolidine-1-carboxylate] has a pest or weed control at 500 ppm greater than 70%.
With `O=S(=O)(c1ccc(C(F)(F)F)cc1)N1CC[C@H](Oc2ccc(-c3noc(C(F)(F)F)n3)cn2)C1` [Compound 109, (S)-5-(trifluoromethyl)-3-(6-((1-((4-(trifluoromethyl)phenyl)sulfonyl)pyrrolidin-3-yl)oxy)pyridin-3-yl)-1,2,4-oxadiazole] the pest or weed control at 500 ppm was greater than 70%.
`O=C(c1cccc(F)c1)N1CC[C@H](Oc2ccc(-c3noc(C(F)(F)F)n3)cn2)C1` [Compound 47, (S)-(3-fluorophenyl)(3-((5-(5-(trifluoromethyl)-1,2,4-oxadiazol-3-yl)pyridin-2-yl)oxy)pyrrolidin-1-yl)methanone] showed a pest or weed control at 500 ppm greater than 70%.
For `O=S(=O)(C1CC1)N1CC[C@H](Oc2ccc(-c3noc(C(F)(F)F)n3)cc2)C1` [Compound 41, (S)-3-(4-((1-(cyclopropylsulfonyl)pyrrolidin-3-yl)oxy)phenyl)-5-(trifluoromethyl)-1,2,4-oxadiazole], the pest or weed control at 500 ppm was greater than 70%.
`CCS(=O)(=O)N1CC[C@H](Oc2ccc(-c3noc(C(F)(F)F)n3)cn2)C1` [Compound 50, (S)-3-(6-((1-(ethylsulfonyl)pyrrolidin-3-yl)oxy)pyridin-3-yl)-5-(trifluoromethyl)-1,2,4-oxadiazole] gave a pest or weed control at 500 ppm greater than 70%.
Work on `O=C(c1ccc(C(F)(F)F)cc1)N1CCC(Oc2cccc(-c3noc(C(F)(F)F)n3)c2)C1` (centres unmarked) [Compound 143, (3-(3-(5-(trifluoromethyl)-1,2,4-oxadiazol-3-yl)phenoxy)pyrrolidin-1-yl)(4-(trifluoromethyl)phenyl)methanone] yielded a pest or weed control at 500 ppm greater than 70%.
In the case of `COc1ccc(C(=O)N2CC[C@H](Oc3ccc(-c4noc(C(F)(F)F)n4)cc3F)C2)cc1` [Compound 53, (S)-(3-(2-fluoro-4-(5-(trifluoromethyl)-1,2,4-oxadiazol-3-yl)phenoxy)pyrrolidin-1-yl)(4-methoxyphenyl)methanone], the pest or weed control at 500 ppm is reported as greater than 70%.
`O=C(Nc1ccc(F)cc1)N1CC[C@H](Oc2ccc(-c3noc(C(F)(F)F)n3)cc2)C1` [Compound 38, (S)-N-(4-fluorophenyl)-3-(4-(5-(trifluoromethyl)-1,2,4-oxadiazol-3-yl)phenoxy)pyrrolidine-1-carboxamide] showed a pest or weed control at 500 ppm greater than 70%.
`O=C(c1cccc(Br)c1)N1CC(Oc2ccc(-c3noc(C(F)(F)F)n3)cc2)C1` [Compound 16, (3-bromophenyl)(3-(4-(5-(trifluoromethyl)-1,2,4-oxadiazol-3-yl)phenoxy)azetidin-1-yl)methanone] was tested, and the pest or weed control at 500 ppm was greater than 70%.
Compound `O=S(=O)(c1ccccc1F)N1CC[C@H](Oc2ccc(-c3noc(C(F)(F)F)n3)cn2)C1` [Compound 152, (S)-3-(6-((1-((2-fluorophenyl)sulfonyl)pyrrolidin-3-yl)oxy)pyridin-3-yl)-5-(trifluoromethyl)-1,2,4-oxadiazole] has a pest or weed control at 500 ppm greater than 70%.
`O=S(=O)(c1ccccc1)N1CC[C@@H](Oc2ccc(-c3noc(C(F)(F)F)n3)cn2)C1` [Compound 71, (R)-3-(6-((1-(phenylsulfonyl)pyrrolidin-3-yl)oxy)pyridin-3-yl)-5-(trifluoromethyl)-1,2,4-oxadiazole] showed a pest or weed control at 500 ppm greater than 70%.
`O=S(=O)(c1cccc(F)c1)N1CC[C@H](Oc2ccc(-c3noc(C(F)(F)F)n3)cc2)C1` [Compound 26, (S)-3-(4-((1-((3-fluorophenyl)sulfonyl)pyrrolidin-3-yl)oxy)phenyl)-5-(trifluoromethyl)-1,2,4-oxadiazole] was tested, and the pest or weed control at 500 ppm was greater than 70%.
Work on `FC(F)(F)c1nc(-c2cccc(OC3CCNC3)c2)no1` (centres unmarked) [Compound 128, 3-(3-(pyrrolidin-3-yloxy)phenyl)-5-(trifluoromethyl)-1,2,4-oxadiazole hydrochloride] yielded a pest or weed control at 500 ppm greater than 70%.
`O=S(=O)(C1CC1)N1CC[C@H](Oc2ccc(-c3noc(C(F)(F)F)n3)cn2)C1` [Compound 106, (S)-3-(6-((1-(cyclopropylsulfonyl)pyrrolidin-3-yl)oxy)pyridin-3-yl)-5-(trifluoromethyl)-1,2,4-oxadiazole] showed a pest or weed control at 500 ppm greater than 70%.
Compound `CCCS(=O)(=O)N1CC[C@H](Oc2ccc(-c3noc(C(F)(F)F)n3)cc2)C1` [Compound 115, (S)-3-(4-((1-(propylsulfonyl)pyrrolidin-3-yl)oxy)phenyl)-5-(trifluoromethyl)-1,2,4-oxadiazole] has a pest or weed control at 500 ppm greater than 70%.
With `O=S(=O)(N1CC[C@H](Oc2ccc(-c3noc(C(F)(F)F)n3)cc2)C1)C(F)(F)F` [Compound 114, (S)-5-(trifluoromethyl)-3-(4-((1-((trifluoromethyl)sulfonyl)pyrrolidin-3-yl)oxy)phenyl)-1,2,4-oxadiazole] the pest or weed control at 500 ppm was greater than 70%.
`O=C(c1ccc(F)cc1)N1CCC(Oc2ccc(-c3noc(C(F)(F)F)n3)cc2)CC1` [Compound 142, (4-fluorophenyl)(4-(4-(5-(trifluoromethyl)-1,2,4-oxadiazol-3-yl)phenoxy)piperidin-1-yl)methanone] was tested, and the pest or weed control at 500 ppm was greater than 70%.
`O=C(c1ccccc1)N1CC[C@H](Oc2ccc(-c3noc(C(F)(F)F)n3)cc2)C1` [Compound 15, (S)-phenyl(3-(4-(5-(trifluoromethyl)-1,2,4-oxadiazol-3-yl)phenoxy)pyrrolidin-1-yl)methanone] gave a pest or weed control at 500 ppm greater than 70%.
